Test results reported in patent publication US20090060984A1, “ANIONIC SURFACTANTS LETHAL TO GRAM-POSITIVE BACTERIA” (priority 2007, published 2009).
Where two headings read alike, the source gives them in different places.

Tested on: P. aeruginosa ATCC 15442
Settings: for CFU/mL of E. coli at 24 hours / CFU/mL of E. coli at 12 hours: exposed to P. aeruginosa, polyurethane, microscope slides
Description: Escherichia coli ATCC 11229 (Culti-loops, Remel Europe, Dartford, Kent, UK) and Pseudomonas aeruginosa ATCC 15442 (Cuti-loops, Remel Europe, Dartford, Kent, UK) were selected as model Gram-negative organisms for the challenge testing of the antimicrobial coatings. Each bacterial strain was streaked for isolated colonies on Tryptic Soy Agar (TSA) plates (Difco, Becton Dickinson, Sparks, Md., U.S.A.) and incubated at 37° C. for 12 to 18 hours. Broth cultures were prepared by first picking 1-2 isolated colonies from TSA plates and inoculating 5 mL Tryptic Soy Broth (TSB; Difco, Becton Dickinson, Sparks, Md., U.S.A.) in a 16 mm test tube. This culture was grown in a shaking water bath at 150 RPM for 8 hours at 37° C. After the eight hours, 125 μL of this culture was added to 50 mL of TSB in a side-arm Klett flask and grown for approximately 8 hours in shaking water bath (150 RPM) at 37° C. The bacterial broths were grown to an A590 of 1.2-1.5, which correlated to approximately 10^9 CFU (colony forming units)/mL. 25 mL of this broth were transferred to a sterile 30 mL Oakridge tube and centrifuged at 12,000×g for 10 minutes at 4° C. (Sorval SS34 rotor) to pelletize the bacteria. The bacterial pellet was washed once and resuspended in 25 mL of phosphate buffer solution (PBS; BBL, FTA Hemaglutination Buffer, Becton Dickinson, Sparks, Md., U.S.A.). The suspension was diluted with PBS to achieve the target range of 10^5-10^6 CFU/mL and used to inoculate the slides containing antibacterial coatings.
The 10% substitution on this weight basis corresponds to substitution of one tenth of the total surfactant weight or to 3% of the total composition weight.
The second set of coatings was made on microscope slides and challenged with E. coli ATCC 11229 and P. aeruginosa ATCC 15442. In these coatings, the gradient levels of incorporated silver were: 0%, 0.02%, 0.05%, 0.1%, 0.2%, 0.5%, 1.0% and 2.0% of the 30% NaAOT control amount. […] These gradients were tested at three inoculation time points, 0 hours, 12 hours, and 24 hours, with the 0% silver and 0 hours slides as controls.
The bacterial cultures were prepared as described in Example 12. Once the slides were inoculated, those assigned to incubate for 12 hours or 24 hours were placed in a humidified chamber by placing the Petri dishes containing the slides on test tubes that had been taped to the bottom of a 9″×13″ Pyrex dish. These test tubes held the Petri dishes just above the bottom of the dish, into which about 500 mL of sterile water was added. The Pyrex dish was also sterilized via UV irradiation (at least 4 minutes of exposure) prior to each challenge to protect against contamination. The dish was then covered with plastic wrap and tin foil and incubated at room temperature (20° C. to 25° C.).
At each time point (0 hours, 12 hours, and 24 hours), 25 mL of sterile PBS was pipetted into the Petri dish completely submerging the glass slide coated with the antimicrobial polymer.

[1] = 0.061% weight w/w Ag in coating (first column 0.113)
[2] = 0.122% weight w/w Ag in coating (first column 0.226)
[3] = […] weight w/w Ag in coating (first column 0.0574)

CCCCC(CC)COC(=O)CC(C(=O)OCC(CC)CCCC)S(=O)(=O)[O-].[Ag+] (centres unmarked) [AgAOT]
Overall silver level effective as bactericide (12 hours of exposure): 0.06 % weight silver relative to coating weight | Smallest level examined that appears effective at killing the P. aeruginosa (24 h exposure): 0.0012 % weight Ag relative to overall coating weight | Overall silver level effective as bactericide (24 hours of exposure): 0.006 % weight silver relative to coating weight | CFU/mL of E. coli at 24 hours (0.0061% weight w/w Ag in coating (first column 0.0113)): 0, 0, 0 CFU/mL | CFU/mL of E. coli at 12 hours [1]: 0, 0, 0 CFU/mL | CFU/mL of E. coli at 24 hours [1]: 0, 0, 0 CFU/mL | CFU/mL of E. coli at 12 hours [2]: 0, 0, 0 CFU/mL | CFU/mL of E. coli at 24 hours [2]: 0, 0, 0 CFU/mL | CFU/mL of E. coli at 24 hours ([…] weight w/w Ag in coating (first column 0.00230)): 0, 0, 0 CFU/mL | CFU/mL of E. coli at 12 hours [3]: 0, 0, 0 CFU/mL | CFU/mL of E. coli at 24 hours [3]: 0, 0, 0 CFU/mL
